# In patent publication US20140163096A1, “METHODS AND COMPOSITIONS FOR TREATING HIV-ASSOCIATED DIARRHEA” (priority 2012, published 2014):
# Key:
# mice = assay: 13-week oral toxicity study in mice; conditions: mouse, in vivo
# Method: One additional group of 15 animals/sex served as the control and received the vehicle, purified water.
# Observations for morbidity, mortality, injury, and the availability of food and water were conducted twice daily for all animals. Detailed clinical observations for clinical signs were conducted weekly on all main study animals. Body weights were measured and recorded weekly on all animals. Food consumption was measured and recorded weekly on all main study animals. Ophthalmoscopic examinations were conducted pretest and prior to necropsy for all main study animals. Blood samples for clinical pathology evaluations were collected from main study animals in extremis and at termination. […] Beginning on Day 7, a limited gross necropsy examination was performed on any TK animal euthanized in extremis or found dead in an effort to determine the cause of death.
# HIV-positive patients = conditions: human, in vivo
# [1] = human, in vivo; cited from earlier work
# [2] = Bacterial reverse mutation assay
# rat bone marrow = conditions: in vivo
substance,measurement,setting,value
Crofelemer,"clinical pathology, organ weight, and macroscopic effects",mice,observed in both sexes at 1200 mg/kg/day
same,food consumption effects,mice,evident at 40 mg/kg/day in females and ≧400 mg/kg/day in both sexes
same,"adverse events reported in greater than or equal to 1% and less than 2% of patients, at a higher incidence than placebo",HIV-positive patients,"dizziness, muscle spasms, myalgia, and pain in extremity"
same,adverse reactions in patients who received doses greater than 250 mg daily,HIV-positive patients,similar
same,safety profile by baseline CD4 cell count,HIV-positive patients,similar
same,systemic bioavailability,[1],virtually no systemic bioavailability
same,bacterial reverse mutation assay result,[2],negative
same,rat bone marrow micronucleus assay result,rat bone marrow,negative
